Experimental data published in the kinase profiling compilation of Christmann-Franck et al. (2016).

How the values were obtained:
Assay in all cases: radiometric filter-binding kinase assay, Kinase HotSpot
Settings in all cases: compound 0.5 µM; ATP 10 µM
ABL1 (human) = ABL1 (human) (UniProt P00519)
AURKA (human) = AURKA (human) (UniProt O14965)
CAMK4 (human) = CAMK4 (human) (UniProt Q16566)
CAMKK1 (human) = CAMKK1 (human) (UniProt Q8N5S9)
CDK1 CCNA2 (human) = CDK1 CCNA2 (human) (UniProt P06493+P20248)
CDK5 CDK5R1 p25 (human) = CDK5 CDK5R1 p25 (human) (UniProt Q00535+Q15078)
Sequence of CDK5 CDK5R1 p25 (human) (Q00535 whole entry, looked up): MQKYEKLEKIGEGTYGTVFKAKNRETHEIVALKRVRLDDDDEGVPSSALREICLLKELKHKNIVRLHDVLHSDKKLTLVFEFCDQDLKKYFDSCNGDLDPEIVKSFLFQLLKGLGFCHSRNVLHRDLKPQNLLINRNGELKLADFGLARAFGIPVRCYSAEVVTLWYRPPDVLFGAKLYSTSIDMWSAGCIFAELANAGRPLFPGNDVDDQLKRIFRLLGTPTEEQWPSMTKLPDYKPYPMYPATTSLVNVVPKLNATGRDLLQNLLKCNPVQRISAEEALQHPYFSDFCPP
Sequence of CDK5 CDK5R1 p25 (human) (Q15078 whole entry, looked up): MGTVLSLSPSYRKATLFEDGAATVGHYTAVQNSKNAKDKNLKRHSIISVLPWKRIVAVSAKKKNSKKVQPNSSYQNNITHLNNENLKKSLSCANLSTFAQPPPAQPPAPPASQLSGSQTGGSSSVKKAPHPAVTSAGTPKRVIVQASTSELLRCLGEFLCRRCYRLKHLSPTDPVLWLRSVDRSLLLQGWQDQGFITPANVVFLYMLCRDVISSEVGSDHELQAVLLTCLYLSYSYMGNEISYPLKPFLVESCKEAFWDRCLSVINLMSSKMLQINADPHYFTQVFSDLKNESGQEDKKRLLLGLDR

CHEK2 (human) = CHEK2 (human) (UniProt O96017)
CSNK1G3 (human) = CSNK1G3 (human) (UniProt Q9Y6M4)
Sequence of CSNK1G3 (human) (Q9Y6M4 whole entry, looked up): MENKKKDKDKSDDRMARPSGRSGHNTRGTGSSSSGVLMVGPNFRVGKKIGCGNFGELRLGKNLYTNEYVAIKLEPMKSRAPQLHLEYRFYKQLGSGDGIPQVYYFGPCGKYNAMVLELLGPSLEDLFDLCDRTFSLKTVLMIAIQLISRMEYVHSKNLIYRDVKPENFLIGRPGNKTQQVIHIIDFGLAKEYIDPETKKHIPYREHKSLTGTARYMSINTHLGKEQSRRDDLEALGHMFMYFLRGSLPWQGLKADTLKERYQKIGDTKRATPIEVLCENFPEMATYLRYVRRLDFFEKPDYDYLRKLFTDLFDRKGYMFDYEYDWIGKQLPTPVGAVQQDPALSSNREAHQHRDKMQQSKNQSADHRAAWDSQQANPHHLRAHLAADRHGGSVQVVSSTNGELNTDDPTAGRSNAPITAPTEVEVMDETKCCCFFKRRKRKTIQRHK

DAPK3 (human) = DAPK3 (human) (UniProt O43293)
DYRK1A (human) = DYRK1A (human) (UniProt Q13627)
EPHA1 (human) = EPHA1 (human) (UniProt P21709)
EPHA3 (human) = EPHA3 (human) (UniProt P29320)
FGFR3 (human) = FGFR3 (human) (UniProt P22607)
FLT1 (human) = FLT1 (human) (UniProt P17948)
FLT3 (human) = FLT3 (human) (UniProt P36888)
FRK (human) = FRK (human) (UniProt P42685)
GRK4 (human) = GRK4 (human) (UniProt P32298)
GRK5 (human) = GRK5 (human) (UniProt P34947)
GSK3A (human) = GSK3A (human) (UniProt P49840)
HIPK2 (human) = HIPK2 (human) (UniProt Q9H2X6)
IKBKE (human) = IKBKE (human) (UniProt Q14164)
MAP2K2 (human) = MAP2K2 (human) (UniProt P36507)
Sequence of MAP2K2 (human) (P36507 whole entry, looked up): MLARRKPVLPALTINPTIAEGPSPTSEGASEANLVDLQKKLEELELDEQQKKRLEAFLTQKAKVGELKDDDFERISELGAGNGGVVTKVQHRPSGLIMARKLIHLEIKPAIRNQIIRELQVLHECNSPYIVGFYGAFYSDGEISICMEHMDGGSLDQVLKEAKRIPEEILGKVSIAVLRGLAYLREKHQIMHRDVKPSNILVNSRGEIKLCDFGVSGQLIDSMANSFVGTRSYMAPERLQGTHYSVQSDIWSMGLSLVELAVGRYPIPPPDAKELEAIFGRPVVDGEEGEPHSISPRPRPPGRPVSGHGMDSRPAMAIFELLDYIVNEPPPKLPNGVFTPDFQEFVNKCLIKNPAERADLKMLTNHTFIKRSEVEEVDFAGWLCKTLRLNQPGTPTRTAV

MAPKAPK3 (human) = MAPKAPK3 (human) (UniProt Q16644)
MAPKAPK5 (human) = MAPKAPK5 (human) (UniProt Q8IW41)
MARK4 (human) = MARK4 (human) (UniProt Q96L34)
MELK (human) = MELK (human) (UniProt Q14680)
MST1R (human) = MST1R (human) (UniProt Q04912)
NEK6 (human) = NEK6 (human) (UniProt Q9HC98)
NEK7 (human) = NEK7 (human) (UniProt Q8TDX7)
PAK2 (human) = PAK2 (human) (UniProt Q13177)
PBK (human) = PBK (human) (UniProt Q96KB5)
PHKG2 (human) = PHKG2 (human) (UniProt P15735)
Sequence of PHKG2 (human) (P15735 whole entry, looked up): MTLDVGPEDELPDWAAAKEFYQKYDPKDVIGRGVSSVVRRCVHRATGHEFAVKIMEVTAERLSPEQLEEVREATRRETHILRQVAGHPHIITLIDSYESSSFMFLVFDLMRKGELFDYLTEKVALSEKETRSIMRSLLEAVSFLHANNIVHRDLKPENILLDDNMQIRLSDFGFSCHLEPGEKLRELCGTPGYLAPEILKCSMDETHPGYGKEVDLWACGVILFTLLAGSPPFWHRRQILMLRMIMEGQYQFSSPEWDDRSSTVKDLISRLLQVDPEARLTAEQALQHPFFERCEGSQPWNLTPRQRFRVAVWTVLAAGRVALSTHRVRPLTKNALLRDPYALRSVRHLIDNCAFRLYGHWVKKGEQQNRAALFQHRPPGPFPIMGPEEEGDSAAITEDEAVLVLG

PRKCB1 (human) = PRKCB1 (human) (UniProt P05771)
PRKCG (human) = PRKCG (human) (UniProt P05129)
PRKCH (human) = PRKCH (human) (UniProt P24723)
Sequence of PRKCH (human) (P24723 whole entry, looked up): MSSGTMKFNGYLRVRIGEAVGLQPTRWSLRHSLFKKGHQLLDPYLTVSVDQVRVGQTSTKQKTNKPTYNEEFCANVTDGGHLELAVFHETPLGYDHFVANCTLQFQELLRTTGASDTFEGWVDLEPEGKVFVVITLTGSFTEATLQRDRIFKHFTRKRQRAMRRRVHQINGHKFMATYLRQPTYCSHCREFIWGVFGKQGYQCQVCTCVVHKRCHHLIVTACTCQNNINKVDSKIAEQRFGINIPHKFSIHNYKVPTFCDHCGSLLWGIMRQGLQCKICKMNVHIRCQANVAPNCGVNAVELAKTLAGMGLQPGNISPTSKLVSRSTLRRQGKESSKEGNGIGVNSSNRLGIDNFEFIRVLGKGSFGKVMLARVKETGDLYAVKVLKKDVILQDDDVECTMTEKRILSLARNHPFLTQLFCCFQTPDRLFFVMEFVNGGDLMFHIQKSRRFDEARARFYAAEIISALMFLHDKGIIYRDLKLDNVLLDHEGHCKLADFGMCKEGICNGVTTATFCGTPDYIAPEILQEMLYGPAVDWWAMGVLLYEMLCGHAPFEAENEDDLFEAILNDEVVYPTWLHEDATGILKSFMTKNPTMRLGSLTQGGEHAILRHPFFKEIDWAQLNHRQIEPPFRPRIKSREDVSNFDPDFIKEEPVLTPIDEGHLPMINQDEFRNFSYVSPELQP

PRKD3 (human) = PRKD3 (human) (UniProt O94806)
PRKG2 (human) = PRKG2 (human) (UniProt Q13237)
Sequence of PRKG2 (human) (Q13237 whole entry, looked up): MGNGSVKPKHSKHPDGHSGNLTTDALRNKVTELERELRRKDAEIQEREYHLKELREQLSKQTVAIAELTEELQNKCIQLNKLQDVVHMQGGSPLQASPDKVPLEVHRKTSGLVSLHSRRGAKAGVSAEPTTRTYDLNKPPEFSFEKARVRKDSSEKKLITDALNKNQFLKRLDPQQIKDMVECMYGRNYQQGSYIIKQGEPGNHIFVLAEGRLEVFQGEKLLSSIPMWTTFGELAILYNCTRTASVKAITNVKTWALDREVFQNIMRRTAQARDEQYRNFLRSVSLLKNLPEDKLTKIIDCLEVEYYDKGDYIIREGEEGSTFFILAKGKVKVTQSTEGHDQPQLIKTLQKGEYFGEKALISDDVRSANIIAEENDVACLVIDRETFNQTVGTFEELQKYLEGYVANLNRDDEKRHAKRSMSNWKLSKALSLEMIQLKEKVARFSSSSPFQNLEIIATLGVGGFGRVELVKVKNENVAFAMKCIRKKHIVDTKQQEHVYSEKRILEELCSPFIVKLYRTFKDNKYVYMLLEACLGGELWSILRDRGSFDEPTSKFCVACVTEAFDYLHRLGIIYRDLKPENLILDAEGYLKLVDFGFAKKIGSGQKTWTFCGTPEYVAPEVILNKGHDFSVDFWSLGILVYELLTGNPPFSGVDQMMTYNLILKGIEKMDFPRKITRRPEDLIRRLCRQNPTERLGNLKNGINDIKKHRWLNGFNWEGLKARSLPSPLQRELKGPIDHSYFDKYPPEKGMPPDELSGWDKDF

ROCK1 (human) = ROCK1 (human) (UniProt Q13464)
[1] = tested on: SGK1 (human), O00141 [S422D]
Sequence of SGK1 (human), O00141 [S422D] (O00141 whole entry S422D, looked up): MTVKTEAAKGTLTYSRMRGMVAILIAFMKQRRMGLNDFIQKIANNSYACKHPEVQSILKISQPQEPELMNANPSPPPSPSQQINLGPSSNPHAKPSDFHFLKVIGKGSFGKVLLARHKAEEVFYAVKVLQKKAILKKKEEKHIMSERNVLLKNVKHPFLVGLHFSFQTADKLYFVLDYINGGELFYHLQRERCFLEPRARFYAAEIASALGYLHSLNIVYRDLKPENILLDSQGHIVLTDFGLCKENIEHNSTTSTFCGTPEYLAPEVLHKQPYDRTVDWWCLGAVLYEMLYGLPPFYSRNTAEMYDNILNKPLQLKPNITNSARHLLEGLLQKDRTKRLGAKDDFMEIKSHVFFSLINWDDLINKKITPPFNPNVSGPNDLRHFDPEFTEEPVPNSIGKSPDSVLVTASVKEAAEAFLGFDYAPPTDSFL

SRPK1 (human) = SRPK1 (human) (UniProt Q96SB4)
Sequence of SRPK1 (human) (Q96SB4 whole entry, looked up): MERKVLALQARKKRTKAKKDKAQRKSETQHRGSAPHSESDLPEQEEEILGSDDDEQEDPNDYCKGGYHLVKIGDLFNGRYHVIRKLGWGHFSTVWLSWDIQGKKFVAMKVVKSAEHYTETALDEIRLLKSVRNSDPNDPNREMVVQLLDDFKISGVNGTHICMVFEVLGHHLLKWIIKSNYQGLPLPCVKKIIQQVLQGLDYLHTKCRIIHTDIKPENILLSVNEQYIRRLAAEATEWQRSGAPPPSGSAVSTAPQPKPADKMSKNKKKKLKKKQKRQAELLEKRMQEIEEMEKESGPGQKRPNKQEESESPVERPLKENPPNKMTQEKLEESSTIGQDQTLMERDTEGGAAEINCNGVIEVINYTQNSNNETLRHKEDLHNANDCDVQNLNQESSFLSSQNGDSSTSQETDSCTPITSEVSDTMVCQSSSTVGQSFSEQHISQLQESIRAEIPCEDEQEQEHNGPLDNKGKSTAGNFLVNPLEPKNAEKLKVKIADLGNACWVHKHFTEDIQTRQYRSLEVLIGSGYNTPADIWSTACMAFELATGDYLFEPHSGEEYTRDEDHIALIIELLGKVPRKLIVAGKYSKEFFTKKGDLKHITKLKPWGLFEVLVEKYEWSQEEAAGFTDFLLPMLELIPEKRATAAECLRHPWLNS

SRPK2 (human) = SRPK2 (human) (UniProt P78362)
TSSK1B (human) = TSSK1B (human) (UniProt Q9BXA7)

Sequence of CAMK4 (human) (Q16566 whole entry, looked up): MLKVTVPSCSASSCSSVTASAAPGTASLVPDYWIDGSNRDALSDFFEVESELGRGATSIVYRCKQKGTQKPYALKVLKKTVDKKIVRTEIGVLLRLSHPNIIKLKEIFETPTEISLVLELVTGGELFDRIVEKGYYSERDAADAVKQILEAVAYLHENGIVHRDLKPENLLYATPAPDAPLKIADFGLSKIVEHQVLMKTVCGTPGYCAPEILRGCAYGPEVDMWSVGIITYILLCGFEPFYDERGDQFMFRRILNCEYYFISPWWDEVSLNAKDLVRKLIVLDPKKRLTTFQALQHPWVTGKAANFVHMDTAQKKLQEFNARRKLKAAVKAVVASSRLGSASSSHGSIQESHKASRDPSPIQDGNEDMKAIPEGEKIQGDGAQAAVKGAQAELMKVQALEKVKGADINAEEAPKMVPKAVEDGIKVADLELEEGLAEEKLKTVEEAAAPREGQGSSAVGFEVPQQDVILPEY

COc1cccc(-c2cc(=O)c3ccccc3o2)c1N
residual activity (ABL1 (human)): 93.9%
residual activity (AURKA (human)): 107%
residual activity (CAMK4 (human)): 104%
residual activity (CAMKK1 (human)): 98.8%
residual activity (CDK1 CCNA2 (human)): 83.8%
residual activity (CDK5 CDK5R1 p25 (human)): 87.5%
residual activity (CHEK2 (human)): 98.8%
residual activity (CSNK1G3 (human)): 97.7%
residual activity (DAPK3 (human)): 101%
residual activity (DYRK1A (human)): 94%
residual activity (EPHA1 (human)): 99.7%
residual activity (EPHA3 (human)): 96.3%
residual activity (FGFR3 (human)): 91%
residual activity (FLT1 (human)): 87.7%
residual activity (FLT3 (human)): 96.3%
residual activity (FRK (human)): 89.5%
residual activity (GRK4 (human)): 104%
residual activity (GRK5 (human)): 97.3%
residual activity (GSK3A (human)): 97%
residual activity (HIPK2 (human)): 116%
residual activity (IKBKE (human)): 95.1%
residual activity (MAP2K2 (human)): 69.2%
residual activity (MAPKAPK3 (human)): 88.1%
residual activity (MAPKAPK5 (human)): 122%
residual activity (MARK4 (human)): 77.8%
residual activity (MELK (human)): 94%
residual activity (MST1R (human)): 93.4%
residual activity (NEK6 (human)): 102%
residual activity (NEK7 (human)): 94.7%
residual activity (PAK2 (human)): 104%
residual activity (PBK (human)): 97.6%
residual activity (PHKG2 (human)): 117%
residual activity (PRKCB1 (human)): 98.5%
residual activity (PRKCG (human)): 100%
residual activity (PRKCH (human)): 87%
residual activity (PRKD3 (human)): 94.3%
residual activity (PRKG2 (human)): 101%
residual activity (ROCK1 (human)): 95.6%
residual activity [1]: 102%
residual activity (SRPK1 (human)): 93.4%
residual activity (SRPK2 (human)): 91.7%
residual activity (TSSK1B (human)): 82.4%

O=c1c2ccccc2[nH]c(=S)n1CCN1CCC(=C(c2ccc(F)cc2)c2ccc(F)cc2)CC1
residual activity (ABL1 (human)): 106%
residual activity (AURKA (human)): 100%
residual activity (CAMK4 (human)): 94.7%
residual activity (CAMKK1 (human)): 110%
residual activity (CDK1 CCNA2 (human)): 96.8%
residual activity (CDK5 CDK5R1 p25 (human)): 93.5%
residual activity (CHEK2 (human)): 106%
residual activity (CSNK1G3 (human)): 97.1%
residual activity (DAPK3 (human)): 102%
residual activity (DYRK1A (human)): 99.9%
residual activity (EPHA1 (human)): 107%
residual activity (EPHA3 (human)): 101%
residual activity (FGFR3 (human)): 99.3%
residual activity (FLT1 (human)): 95.2%
residual activity (FLT3 (human)): 104%
residual activity (FRK (human)): 100%
residual activity (GRK4 (human)): 107%
residual activity (GRK5 (human)): 103%
residual activity (GSK3A (human)): 104%
residual activity (HIPK2 (human)): 105%
residual activity (IKBKE (human)): 101%
residual activity (MAP2K2 (human)): 101%
residual activity (MAPKAPK3 (human)): 109%
residual activity (MAPKAPK5 (human)): 101%
residual activity (MARK4 (human)): 102%
residual activity (MELK (human)): 104%
residual activity (MST1R (human)): 103%
residual activity (NEK6 (human)): 96.2%
residual activity (NEK7 (human)): 100%
residual activity (PAK2 (human)): 103%
residual activity (PBK (human)): 107%
residual activity (PHKG2 (human)): 100%
residual activity (PRKCB1 (human)): 96%
residual activity (PRKCG (human)): 100%
residual activity (PRKCH (human)): 102%
residual activity (PRKD3 (human)): 101%
residual activity (PRKG2 (human)): 104%
residual activity (ROCK1 (human)): 97.2%
residual activity [1]: 96%
residual activity (SRPK1 (human)): 97.8%
residual activity (SRPK2 (human)): 94.1%
residual activity (TSSK1B (human)): 106%

O=C(O)c1ccc2c3c1cccc3c(=O)n1c3ccccc3nc21
residual activity (ABL1 (human)): 99.3%
residual activity (AURKA (human)): 78.6%
residual activity (CAMK4 (human)): 101%
residual activity (CAMKK1 (human)): 45.8%
residual activity (CDK1 CCNA2 (human)): 78.1%
residual activity (CDK5 CDK5R1 p25 (human)): 80.6%
residual activity (CHEK2 (human)): 75.2%
residual activity (CSNK1G3 (human)): 96.9%
residual activity (DAPK3 (human)): 51.3%
residual activity (DYRK1A (human)): 55.5%
residual activity (EPHA1 (human)): 95.3%
residual activity (EPHA3 (human)): 104%
residual activity (FGFR3 (human)): 92.9%
residual activity (FLT1 (human)): 86.5%
residual activity (FLT3 (human)): 68.9%
residual activity (FRK (human)): 97.6%
residual activity (GRK4 (human)): 95.5%
residual activity (GRK5 (human)): 97.1%
residual activity (GSK3A (human)): 87.3%
residual activity (HIPK2 (human)): 101%
residual activity (IKBKE (human)): 57.3%
residual activity (MAP2K2 (human)): 105%
residual activity (MAPKAPK3 (human)): 103%
residual activity (MAPKAPK5 (human)): 96%
residual activity (MARK4 (human)): 88.4%
residual activity (MELK (human)): 97%
residual activity (MST1R (human)): 100%
residual activity (NEK6 (human)): 115%
residual activity (NEK7 (human)): 105%
residual activity (PAK2 (human)): 97%
residual activity (PBK (human)): 97.5%
residual activity (PHKG2 (human)): 94.7%
residual activity (PRKCB1 (human)): 89.8%
residual activity (PRKCG (human)): 99.1%
residual activity (PRKCH (human)): 100%
residual activity (PRKD3 (human)): 82.2%
residual activity (PRKG2 (human)): 94.8%
residual activity (ROCK1 (human)): 104%
residual activity [1]: 102%
residual activity (SRPK1 (human)): 96.1%
residual activity (SRPK2 (human)): 89.3%
residual activity (TSSK1B (human)): 112%
